This assay deals with T1, STAT6 (Homo sapiens, UniProt P42226).
T1 construct: endogenous in cells; host or cells: MOLM-16, KU-812, SKNO1, MB231, L1236
T1 sequence (P42226 1-847): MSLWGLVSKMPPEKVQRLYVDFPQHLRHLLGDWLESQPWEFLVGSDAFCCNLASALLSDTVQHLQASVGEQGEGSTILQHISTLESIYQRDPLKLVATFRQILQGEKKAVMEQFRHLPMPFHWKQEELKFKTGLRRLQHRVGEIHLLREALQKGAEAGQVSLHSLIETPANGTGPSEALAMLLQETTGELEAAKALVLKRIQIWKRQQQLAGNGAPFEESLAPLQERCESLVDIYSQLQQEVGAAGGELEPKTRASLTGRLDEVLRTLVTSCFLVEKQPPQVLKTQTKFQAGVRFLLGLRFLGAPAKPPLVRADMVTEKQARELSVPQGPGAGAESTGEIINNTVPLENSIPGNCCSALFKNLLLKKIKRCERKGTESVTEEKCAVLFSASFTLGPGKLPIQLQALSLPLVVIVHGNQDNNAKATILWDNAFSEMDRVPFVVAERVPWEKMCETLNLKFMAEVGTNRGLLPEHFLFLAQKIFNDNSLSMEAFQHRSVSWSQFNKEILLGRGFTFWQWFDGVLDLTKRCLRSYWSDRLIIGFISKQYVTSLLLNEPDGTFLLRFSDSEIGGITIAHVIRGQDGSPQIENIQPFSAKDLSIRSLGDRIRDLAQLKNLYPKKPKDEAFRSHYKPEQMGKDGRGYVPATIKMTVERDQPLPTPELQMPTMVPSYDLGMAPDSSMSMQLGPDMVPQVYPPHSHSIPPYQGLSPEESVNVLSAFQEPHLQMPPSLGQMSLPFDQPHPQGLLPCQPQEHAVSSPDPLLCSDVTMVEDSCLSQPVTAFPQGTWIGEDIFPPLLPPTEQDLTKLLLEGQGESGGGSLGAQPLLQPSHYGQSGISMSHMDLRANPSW
The assay is described as follows: Immunoblotting (Western blot) analysis of STAT6 degradation efficiency of degraders in treated cells. In kind it is cell-based. In short, it runs like this: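 Cells (~1 million per point) treated with compounds at indicated concentrations and times, lysed in RIPA with protease/phosphatase inhibitors; 20-40 μg protein run on SDS-PAGE and blotted to PVDF. STAT6 or STAT5 rabbit mAbs with GAPDH loading control, IRDye secondaries; near-infrared fluorescence scan, band intensity quantified.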

[1] abbreviates: MOLM-16 cells, class symbols, read-out: DC50 S6 MOLM-16.
Setting [2] is: read-out: DC50 S6 MB231, MB231 cells.
The mark [3] stands for this setting: MOLM-16 cells, numeric bound, read-out: DC50 S6 MOLM-16.

In patent US20230295197A1, “STAT5 and STAT6 Degraders and Uses Thereof” (REGENTS OF THE UNIVERSITY OF MICHICAN, priority 2022, published 2023) one finds DC50 data, which are given here for eleven compounds.

Where two headings read alike, the source gives them in different places. *1 amine or outer side, *2 acyl side, *3 side chain or, on linkers, in order; H or OH if unused. Where a SMILES comes first, the peptide text is derived from it. [ ]: non-standard residue; d: D form. The star is where a group is joined. Benzothienyl2CO(5-CF2PO3H2) = O=C(c1cc2cc(C(F)(F)P(=O)(O)O)ccc2s1)*; βAla(N-(4-Br-phenyl)) = O=C(CCN(c1ccc(Br)cc1)[*:1])[*:2]; NHBn(4-(4-Me-thiazol-5-yl)) = Cc1ncsc1-c1ccc(CN*)cc1; Hyp = O=C(O)[C@@H]1C[C@@H](O)CN1; Tle = CC(C)(C)[C@H](N)C(=O)O; Ahx = NCCCCCC(=O)O; Ava = NCCCCC(=O)O

Take `CC(C)(C)[C@H](NC(=O)c1cc2cc(C(F)(F)P(=O)(O)O)ccc2s1)C(=O)N1Cc2cc(OCC(=O)NCCCCCCCCC#Cc3cccc4c3C(=O)N(C3CCC(=O)NC3=O)C4=O)ccc2C[C@H]1C(=O)N1CCC[C@H](c2ccccc2)C1` (stereo partly drawn) [Compound 559, ((2-(((2S)-1-((3S)-7-(2-((10-(2-(2,6-dioxopiperidin-3-yl)-1,3-dioxoisoindolin-4-yl)dec-9-yn-1-yl)amino)-2-oxoethoxy)-3-((R)-3-phenylpiperidine-1-carbonyl)-3,4-dihydroisoquinolin-2(1H)-yl)-3,3-dimethyl-1-oxobutan-2-yl)carbamoyl)benzo[b]thiophen-5-yl)difluoromethyl)phosphonic acid]: the 50% degradation concentration (DC50) under setting [1] was above 10 µM.

In the case of `CC(C)(C)[C@H](NC(=O)c1cc2cc(C(F)(F)P(=O)(O)O)ccc2s1)C(=O)N1C[C@@H](OCC(=O)NCCCCCC#Cc2ccc3c(c2)C(=O)N(C2CCC(=O)NC2=O)C3=O)C[C@H]1C(=O)N1CCC[C@H](c2ccccc2)C1` (stereo partly drawn) [Compound 502, ((2-(((2S)-1-((2S,4S)-4-(2-((7-(2-(2,6-dioxopiperidin-3-yl)-1,3-dioxoisoindolin-5-yl)hept-6-yn-1-yl)amino)-2-oxoethoxy)-2-((R)-3-phenylpiperidine-1-carbonyl)pyrrolidin-1-yl)-3,3-dimethyl-1-oxobutan-2-yl)carbamoyl)benzo[b]thiophen-5-yl)difluoromethyl)phosphonic acid], the DC50 under setting [1] is above 10 µM.

Turning to `Cc1ncsc1-c1ccc(CNC(=O)[C@@H]2C[C@@H](O)CN2C(=O)[C@@H](NC(=O)CCCCNC(=O)CCN(C(=O)[C@@H]2CCCN2C(=O)[C@@H](NC(=O)c2cc3cc(C(F)(F)P(=O)(O)O)ccc3s2)C(C)(C)C)c2ccc(Br)cc2)C(C)(C)C)cc1` [Compound 401] ({Benzothienyl2CO(5-CF2PO3H2)}-[Tle]P[βAla(N-(4-Br-phenyl))][Ava][Tle][Hyp]-{NHBn(4-(4-Me-thiazol-5-yl))}), the half-maximal degradation concentration (DC50) under setting [2] is above 10 µM.

`CC(C)(C)[C@H](NC(=O)c1cc2cc(C(F)(F)P(=O)(O)O)ccc2s1)C(=O)N1CCN(C(=O)CCCCCC#Cc2ccc3c(c2)CN(C2CCC(=O)NC2=O)C3=O)C[C@H]1C(=O)N1CCO[C@H](c2ccccc2)C1` (stereo partly drawn) [Compound 596, ((2-(((2S)-1-((2S)-4-(8-(2-(2,6-dioxopiperidin-3-yl)-1-oxoisoindolin-5-yl)oct-7-ynoyl)-2-((R)-2-phenylmorpholine-4-carbonyl)piperazin-1-yl)-3,3-dimethyl-1-oxobutan-2-yl)carbamoyl)benzo[b]thiophen-5-yl)difluoromethyl)phosphonic acid]: the DC50 under setting [3] is above 0.3 µM.

`Cc1cc([C@H](C(=O)N2C[C@H](O)C[C@H]2C(=O)N[C@@H](CC(=O)NCCCCCCCCCCNC(=O)CCN(C(=O)[C@@H]2CCCN2C(=O)[C@@H](NC(=O)c2cc3cc(C(F)(F)P(=O)(O)O)ccc3s2)C(C)(C)C)c2ccc(Br)cc2)c2ccc(-c3scnc3C)cc2)C(C)C)on1` [Compound 407, ((2-(((S)-1-((S)-2-((4-bromophenyl)(3-((10-((S)-3-((2S,4R)-4-hydroxy-1-((R)-3-methyl-2-(3-methylisoxazol-5-yl)butanoyl)pyrrolidine-2-carboxamido)-3-(4-(4-methylthiazol-5-yl)phenyl)propanamido)decyl)amino)-3-oxopropyl)carbamoyl)pyrrolidin-1-yl)-3,3-dimethyl-1-oxobutan-2-yl)carbamoyl)benzo[b]thiophen-5-yl)difluoromethyl)phosphonic acid]: the half-maximal degradation concentration (DC50) (MB231 cells, read-out: DC50 S6 MB231) is above 10 µM.

On to `CC(C)(C)[C@H](NC(=O)c1cc2cc(C(F)(F)P(=O)(O)O)ccc2s1)C(=O)N1Cc2cc(OCC(=O)NCCC#Cc3ccc4c(c3)C(=O)N(C3CCC(=O)NC3=O)C4=O)ccc2C[C@H]1C(=O)N1CCC[C@H](c2ccccc2)C1` (stereo partly drawn) [Compound 552, ((2-(((2S)-1-((3S)-7-(2-((4-(2-(2,6-dioxopiperidin-3-yl)-1,3-dioxoisoindolin-5-yl)but-3-yn-1-yl)amino)-2-oxoethoxy)-3-((R)-3-phenylpiperidine-1-carbonyl)-3,4-dihydroisoquinolin-2(1H)-yl)-3,3-dimethyl-1-oxobutan-2-yl)carbamoyl)benzo[b]thiophen-5-yl)difluoromethyl)phosphonic acid], for which the DC50 under setting [1] was above 10 µM.

As to `CC(C)(C)[C@H](NC(=O)c1cc2cc(C(F)(F)P(=O)(O)O)ccc2s1)C(=O)N1Cc2cc(OCC(=O)NCCC#Cc3cccc4c3C(=O)N(C3CCC(=O)NC3=O)C4=O)ccc2C[C@H]1C(=O)N1CCO[C@H](c2ccccc2)C1` (stereo partly drawn) [Compound 537, ((2-(((2S)-1-((3S)-7-(2-((4-(2-(2,6-dioxopiperidin-3-yl)-1,3-dioxoisoindolin-4-yl)but-3-yn-1-yl)amino)-2-oxoethoxy)-3-((R)-2-phenylmorpholine-4-carbonyl)-3,4-dihydroisoquinolin-2(1H)-yl)-3,3-dimethyl-1-oxobutan-2-yl)carbamoyl)benzo[b]thiophen-5-yl)difluoromethyl)phosphonic acid], the DC50 under setting [1] is above 10 µM.

Regarding `CC(C)(C)[C@H](NC(=O)c1cc2cc(C(F)(F)P(=O)(O)O)ccc2s1)C(=O)N1C[C@@H](OCCCCCCCCCCC#Cc2cccc3c2CN(C2CCC(=O)NC2=O)C3=O)C[C@H]1C(=O)N1CCO[C@H](c2ccccc2)C1` (stereo partly drawn) [Compound 585, ((2-(((2S)-1-((2S,4S)-4-((12-(2-(2,6-dioxopiperidin-3-yl)-1-oxoisoindolin-4-yl)dodec-11-yn-1-yl)oxy)-2-((R)-2-phenylmorpholine-4-carbonyl)pyrrolidin-1-yl)-3,3-dimethyl-1-oxobutan-2-yl)carbamoyl)benzo[b]thiophen-5-yl)difluoromethyl)phosphonic acid], the half-maximal degradation concentration (DC50) reads like this: (L1236 cells, read-out: DC50 S6 L1236) above 10 µM; under setting [3], above 0.3 µM.

On to `CC(C)(C)[C@H](NC(=O)c1cc2cc(C(F)(F)P(=O)(O)O)ccc2s1)C(=O)N1Cc2cc(OCC(=O)NCCCCC#Cc3ccc4c(c3)C(=O)N(C3CCC(=O)NC3=O)C4=O)ccc2C[C@H]1C(=O)N1CCO[C@H](c2ccccc2)C1` (stereo partly drawn) [Compound 542, ((2-(((2S)-1-((3S)-7-(2-((6-(2-(2,6-dioxopiperidin-3-yl)-1,3-dioxoisoindolin-5-yl)hex-5-yn-1-yl)amino)-2-oxoethoxy)-3-((R)-2-phenylmorpholine-4-carbonyl)-3,4-dihydroisoquinolin-2(1H)-yl)-3,3-dimethyl-1-oxobutan-2-yl)carbamoyl)benzo[b]thiophen-5-yl)difluoromethyl)phosphonic acid], for which the DC50 under setting [1] was above 10 µM.

With `CC(C)(C)[C@H](NC(=O)c1cc2cc(C(F)(F)P(=O)(O)O)ccc2s1)C(=O)N1CCN(C(=O)CC(=O)NCCCCCC#Cc2cccc3c2C(=O)N(C2CCC(=O)NC2=O)C3=O)C[C@H]1C(=O)N1CCC[C@H](c2ccccc2)C1` (stereo partly drawn) [Compound 529, ((2-(((2S)-1-((2S)-4-(3-((7-(2-(2,6-dioxopiperidin-3-yl)-1,3-dioxoisoindolin-4-yl)hept-6-yn-1-yl)amino)-3-oxopropanoyl)-2-((R)-3-phenylpiperidine-1-carbonyl)piperazin-1-yl)-3,3-dimethyl-1-oxobutan-2-yl)carbamoyl)benzo[b]thiophen-5-yl)difluoromethyl)phosphonic acid], the 50% degradation concentration (DC50) under setting [1] is above 10 µM.

As for `Cc1ncsc1-c1ccc(CNC(=O)[C@@H]2C[C@@H](O)CN2C(=O)[C@@H](NC(=O)CCCCCNC(=O)CCN(C(=O)[C@@H]2CCCN2C(=O)[C@@H](NC(=O)c2cc3cc(C(F)(F)P(=O)(O)O)ccc3s2)C(C)(C)C)c2ccc(Br)cc2)C(C)(C)C)cc1` [Compound 400] ({Benzothienyl2CO(5-CF2PO3H2)}-[Tle]P[βAla(N-(4-Br-phenyl))][Ahx][Tle][Hyp]-{NHBn(4-(4-Me-thiazol-5-yl))}), the DC50 under setting [2] was above 10 µM.
